Where a name gives a salt, the structure may show the parent alone.
System: Rattus norvegicus
[1] = subchronic, oral, gavage, Sprague-Dawley
[2] = subchronic, oral, gavage, M, Sprague-Dawley, Absolute Organ Weight: Liver increase + Relative Organ Weight: Liver increase + Necropsy: Stomach-Thickening of limiting ledge + …
[3] = short-term, duration: 28 days, oral, gavage, F, Sprague-Dawley, Clinical Observation: Locomotor activity decrease, Crouching position + Functional Observational Battery: Reactivity decrease + Body Weight …
[4] = short-term, duration: 28 days, oral, gavage, M, Sprague-Dawley, Clinical Observation: Locomotor activity decrease, Crouching position + Functional Observational Battery: Reactivity decrease + Body Weight …
[5] = subchronic, oral, gavage, M, Sprague-Dawley, Clinical Observation: Salivation PtosisEmaciation Locomotor activity decrease + Body Weight Changes: Gain decrease + Blood Chemistry: TP …
[6] = subchronic, oral, gavage, M, Sprague-Dawley, Body Weight Changes: Body weight gain decrease + Food Consumption: Food consumption decrease + Blood Chemistry: ALP decrease, TG decrease, …
[7] = short-term, duration: 28 days, oral, gavage, F, Sprague-Dawley, Clinical Observation: Staggering gait + Body Weight Changes: decrease, Gain decrease + Urinalysis: pH decrease, Protein decrease, Volume …
[8] = short-term, duration: 28 days, oral, gavage, M, Sprague-Dawley, Clinical Observation: Staggering gait + Body Weight Changes: decrease, Gain decrease + Urinalysis: pH decrease, Protein decrease, Volume …
[9] = short-term, duration: 28 days, oral, gavage, M, Sprague-Dawley, Clinical Observation: Locomotor activity decrease, Staining around nose and mouth Salivation + Functional Observational Battery: Motor …
[10] = short-term, duration: 28 days, oral, gavage, F, Sprague-Dawley, Clinical Observation: Soft stool + Body Weight Changes: decrease, Gain decrease + Urinalysis: Protein increasep H decrease + Blood Chemistry…
[11] = short-term, duration: 28 days, oral, gavage, M, Sprague-Dawley, Clinical Observation: Soft stool + Body Weight Changes: decrease, Gain decrease + Urinalysis: Protein increasep H decrease + Blood Chemistry…
[12] = short-term; duration: 28 days; oral; gavage; M; Sprague-Dawley; Deaths/5) + Body Weight Changes: decrease + Food Consumption: decrease + Urinalysis: Urine volume decrease, Uosm increase + Hematology: MCH …

SMILES: CC(C)CCCCCOC(=O)CCc1cc(C(C)(C)C)c(O)c(C(C)(C)C)c1
- NOEL (short-term, duration: 28 days, oral, gavage, M/F, Hematology: APTT increase + Organ Weight: Liver increase + Histopathology: Liver - Hypertrophy, centrilobular, hepatocyte Thyroid - …): < 5 mg/kg-day

SMILES: Nc1ccc([N+](=O)[O-])cc1Cl [2-Chloro-4-nitroaniline]
- NOEL [1]: 100 mg/kg-day

SMILES: S=C(SSSSC(=S)N1CCCCC1)N1CCCCC1 [Bis(piperidinothiocarbonyl) tetrasulphide]
- NOEL (short-term, duration: 28 days, oral, gavage, F, Sprague-Dawley, Histopathology: Kidney-Hyaline droplet, proximal tubular epithelium Kidney-Eosinophilic body, proximal tubular epithelium): 1000 mg/kg-day
- NOEL (short-term, duration: 28 days, oral, gavage, M, Sprague-Dawley, Histopathology: Kidney-Hyaline droplet, proximal tubular epithelium Kidney-Eosinophilic body, proximal tubular epithelium): 100 mg/kg-day
- NOEL (subchronic, oral, gavage, M, Sprague-Dawley, Clinical Observation: Light brown stool + Body Weight Changes: decrease, R): 1000 mg/kg-day

SMILES: O=C(O)C1CCC(c2ccc(Cl)cc2)CC1 (stereo not drawn)
- NOEL (short-term, duration: 28 days, oral, gavage, M/F, Deaths + Clinical Observation: Abnormal gait Lethargy Piloerection Ptosis + Blood Chemistry: GPT increase, ALP increase, TP increase, ALB …): < 12 mg/kg-day

SMILES: CCOC(=O)/C=C\C(=O)OCC [Diethyl maleate]
- NOAEL [2]: 20 mg/kg-day
- NOEL [2]: 20 mg/kg-day

SMILES: CC(C)(c1cc(Br)c(OCC(Br)CBr)c(Br)c1)c1cc(Br)c(OCC(Br)CBr)c(Br)c1 (stereo not drawn) [Tetrabromobisphenol A-bis(2,3-dibromopropyl ether)]
- NOEL [1]: 1000 mg/kg-day

SMILES: Nc1cc(C(=O)O)ccc1Cl [3-Amino-4-chlorobenzoic acid]
- NOEL (subchronic, oral, gavage, M, Sprague-Dawley, Clinical Observation: Transient salivation + Histopathology: Mesentric lymph node-Granuloma R): 200 mg/kg-day

SMILES: Clc1cccc2ccccc12 [1-Chloronaphthalene]
- LOEL [3]: 100 mg/kg-day
- NOEL [3]: 30 mg/kg-day
- LOEL [4]: 100 mg/kg-day
- NOEL [4]: 30 mg/kg-day

SMILES: C=CC(C)(O)CCC=C(C)C (stereo not drawn) [Linalool]
- NOAEL (short-term, duration: 28 days, oral, gavage, M/F, CD/BR, Deaths + Blood Chemistry: TP increase, Alb increase, Ca increase, Glu decrease + Absolute Organ Weight: Liver increase, Kidney increase + …): 160 mg/kg-day

SMILES: CC(C)(C)c1cc(CCC(=O)O)cc(C(C)(C)C)c1O [Fenozan]
- NOEL (subchronic, duration: 90 days, oral, gavage, M/F, Blood Chemistry: GPT increase, TP increase, GLB increase, T-CHO increase + Organ Weight: Liver increase + Histopathology: Liver - …): 3 mg/kg-day

SMILES: CCCCCCCC[Si](OCC)(OCC)OCC [Triethoxyoctylsilane]
- NOAEL (short-term, duration: 28 days, oral, diet, Fischer 344): 10000 ppm
- NOAEL (short-term, duration: 29 days, oral, gavage, M/F, Sprague-Dawley, Clinical Observation: Soiling of the head (nose, chin, muzzle) + Body Weight Changes: Mean body weight decrease, Weight gain decrease + Food…): 300 mg/kg-day

SMILES: CC1CC(C)(C)CC(c2ccc(O)cc2)(c2ccc(O)cc2)C1 (stereo not drawn) [bisphenol TMC]
- NOEL (short-term, duration: 28 days, oral, gavage, M/F, Body Weight Changes: Weight gain decrease + Food Consumption: decrease + Water Consumption: increase + Urinalysis: Protein increase + …): < 100 mg/kg-day

SMILES: CC1(C)COC(=O)C1O (stereo not drawn) [2(3H)-Furanone, dihydro-3-hydroxy-4,4-dimethyl-]
- NOAEL (short-term, duration: 28 days, oral, gavage, M, Sprague-Dawley, Blood Chemistry: K increase): 200 mg/kg-day

SMILES: O=C/C=C/c1ccccc1 [(2E)-3-Phenylprop-2-enal]
- NOEL (chronic, duration: 14 weeks, oral, diet, F, Fischer 344, Body Weight Changes: decrease + Food Consumption: decrease + Hematology: Ret decrease, Plt decrease + Blood Chemistry: Bile acid increase, …): < 300 mg/kg-day
- NOEL (chronic, duration: 14 weeks, oral, diet, M/F, Fischer 344, Body Weight Changes: decrease + Food Consumption: decrease + Hematology: Ret decrease, Plt decrease + Blood Chemistry: Bile acid increase, …): < 320 mg/kg-day

SMILES: COCCOCCOCCO [2-[2-(2-Methoxyethoxy)ethoxy]ethanol]
- NOAEL (chronic, duration: 91 days, oral, drinking water, M/F, Sprague-Dawley, Deaths + Body Weight Changes: Body weight gain decrease + Food Consumption: decrease + Water Consumption: decrease + Absolute Organ Weight: …): 400 mg/kg-day

SMILES: CCNc1cccc2ccccc12 [1-Naphthalenamine, N-ethyl-]
- NOEL (short-term, duration: 28 days, oral, gavage, M/F, Sprague-Dawley, Deaths + Clinical Observation: Brown urine Soft feces + Functional Observational Battery: Motor activity decrease + Body Weight Changes: …): 12 mg/kg-day

SMILES: O=C(O)c1cccc([N+](=O)[O-])c1 [3-Nitrobenzoic acid]
- NOEL (subchronic, oral, gavage, M, Sprague-Dawley, Body Weight Changes: decrease + Hematology: RBC decrease + Blood Chemistry: TP decrease, A/G increase, Pi increase, K increase, Cl decrease…): 20 mg/kg-day

SMILES: CC(O)COc1ccc(C(C)(C)c2ccc(OCC(C)O)cc2)cc1 (stereo not drawn) [Bisphenol A bis(polypropylene glycol) ether]
- LOAEL [5]: 120 mg/kg-day
- LOEL [5]: 120 mg/kg-day
- NOAEL [5]: 30 mg/kg-day
- NOEL [5]: 30 mg/kg-day

SMILES: CC1OC(C)OC(C)O1 (stereo not drawn) [Paraldehyde]
- NOEL (short-term, duration: 28 days, oral, gavage, M/F, Sprague-Dawley, Clinical Observation: Locomotor activity decrease + Functional Observational Battery: Width of straddle increase + Relative Organ Weight: …): 100 mg/kg-day

SMILES: C(CCCOCC1CO1)CCOCC1CO1 (stereo not drawn) [1,6-Hexanediol diglycidyl ether]
- NOAEL [6]: 30 mg/kg-day
- NOEL [6]: 30 mg/kg-day

SMILES: COc1ccc(OC)c(Cl)c1 [2-Chloro-1,4-dimethoxybenzene]
- LOEL [7]: 200 mg/kg-day
- NOEL [7]: 40 mg/kg-day
- LOEL [8]: 200 mg/kg-day
- NOEL [8]: 40 mg/kg-day
- NOEL (subchronic, oral, gavage, M, Sprague-Dawley, Hematology: RBC decrease, MCV increase, MCH increase + Blood Chemistry: T-Cho increase, PL increase, Ca increase + Absolute Organ Weight: …): 30 mg/kg-day

SMILES: O=NN1CN2CN(C1)CN(N=O)C2 [N,N-Dinitrosopentamethylenetetramine]
- NOAEL [9]: < 40 mg/kg-day
- NOEL [9]: < 40 mg/kg-day

SMILES: O=[N+]([O-])c1cc([As](=O)(O)O)ccc1O [4-Hydroxy-3-nitrophenylarsonic acid]
- NOEL (subchronic, duration: 13 weeks, oral, diet, M/F, Fischer 344, Deaths + Clinical Observation: Ruffled fur Hyperexcitability Ataxia Trembling Slight inactivity + Body Weight Changes: decrease + Relative …): < 4.8 mg/kg-day

SMILES: CCn1cc(C(=O)[O-])c(=O)c2cc3occc3nc21.[Na+]
- NOEL (chronic, duration: 26 weeks, oral, gavage, M/F, Clinical Observation: Salivation + Body Weight Changes: Gain decrease + Hematology: WBC decrease + Blood Chemistry: A/G increase + Organ …): 10 mg/kg-day

SMILES: C=Cc1ccc(S(=O)(=O)[O-])cc1.[Na+] [Sodium 4-vinylbenzenesulfonate]
- LOEL [10]: 1000 mg/kg-day
- NOEL [10]: 300 mg/kg-day
- LOEL [11]: 300 mg/kg-day
- NOEL [11]: 100 mg/kg-day

SMILES: O=S(=O)(c1ccc(Cl)cc1)c1ccc(Cl)cc1 [4,4'-Dichlorodiphenyl sulfone]
- NOEL (chronic, duration: 14 weeks, oral, diet, M/F, Fischer 344, Body Weight Changes: decrease + Food Consumption: decrease + Hematology: Hgb decrease, Plt increase + Blood Chemistry: TP increase, BUN …): < 2.34 mg/kg-day
- NOAEL [12]: < 50 mg/kg-day
- NOEL [12]: < 50 mg/kg-day

SMILES: S=c1[nH]c(=S)[nH]c(=S)[nH]1 [Trithiocyanuric acid]
- NOEL (subchronic, oral, gavage, M, Sprague-Dawley, Deaths + Clinical Observation: Black area of the pinna Nodule of the tail Dark purple distally of the tail Reddish urine + Body Weight …): < 62.5 mg/kg-day

SMILES: C=C(C)CCl [3-Chloro-2-methylpropene]
- NOEL (subchronic, duration: 13 weeks, oral, gavage, M/F, Fischer 344, Deaths + Clinical Observation: Rough coat>400 + Body Weight Changes: decrease + Histopathology: Liver-Inflammation, Chronic, Focal Liver-…): 100 mg/kg-day

SMILES: Oc1cccc(Br)c1 [Phenol, 3-bromo-]
- NOEL (short-term, duration: 28 days, oral, gavage, M/F, Sprague-Dawley, Clinical Observation: Salivation + Body Weight Changes: Weight gain decrease + Water Consumption: increase + Urinalysis: Volume increase + …): 300 mg/kg-day

SMILES: CC(O)CC(C)(C)O (stereo not drawn) [2-Methyl-2,4-pentanediol]
- NOAEL (subchronic, duration: 90 days, oral, gavage, M/F, CD(SD), Deaths: None (there were dead animals by miss-dosing) + Water Consumption: increase + Urinalysis: pH decrease, S.G. increase + Hematology: …): 450 mg/kg-day

SMILES: CC(=O)CC/C=C(\C)CC/C=C(\C)CC/C=C(\C)CCC=C(C)C [Teprenone]
- NOEL (subchronic, oral, gavage, M/F, Sprague-Dawley, Clinical Observation: Oily fur Unkempt fur Loss of fur Diarrhea + Body Weight Changes: decrease + Urinalysis: Cl increase, Ketone + …): 62.5 mg/kg-day
